Data taken from patent US9302996B2, “Continuous arycyclic compound” (MITSUBISHI TANABE PHARMA CORPORATION, priority 2010, dated 2016).
Like-named read-outs stand apart in the source and are kept apart here. Marks after values point to notes of the source that are not given here.

Assays:
Format in all cases: in vivo
ICR mice = assay: Triglyceride (TG) in blood plasma increase-inhibiting action due to lipid administration; conditions: Mus musculus; male ICR mice, 5 mg/kg oral, lipid (Intralipos 20%) after 30 minutes, plasma TG 2 hours after lipid; read-out: Inhibiting rate of TG-increase in blood plasma (5 mg/kg)
Protocol: 6 to 9 weeks-old male ICR mice were fasted overnight, and Test compound suspended in 0.2% carboxymethyl cellulose solution was orally administered to the mice. A lipid (Intralipos 20%, OTSUKA PHARMACEUTICAL CO., LTD., 10 mL/kg) was orally administered after 30 minutes. Blood was collected from tail vein immediately before the lipid administration, and after 2 hours from the same to obtain blood plasma. Measurement of TG in blood plasma was carried out by using a triglyceride E Test Wako (Wako Pure Chemical Industries, Ltd.), and an increased value of TG in blood plasma by administration of the lipid was calculated. An increased value of TG in blood plasma in a solvent control group was used as a control, and an inhibiting rate in increase of TG in blood plasma in the Test compound administered group was calculated.

C57BL/6J mice = assay: Antifeeding activity (high fat diet intake up to 4 hours); conditions: Mus musculus, male C57BL/6J mice, 5 mg/kg oral, food ingested up to 4 hours, read-out: Antifeeding rate (5 mg/kg)
Protocol: 7 to 10 weeks-old male C57BL/6J mice were fasted overnight, and the test compound suspended in 0.2% carboxymethylcellulose solution was orally administered. Immediately after the administration, high fat diet (Oriental Yeast Co., Ltd, 60 cal % fat) was provided and freely fed. An amount of food ingested up to 4 hours was measured, and a lowering rate (an antifeeding rate) of the amount of food ingested in the Test compound administered group was calculated as compared to that of the solvent control group as a control.

KK-Ay mice = assay: Weight gain-inhibiting action, hypoglycemic effect, insulin in blood plasma lowering action in KK-Ay mice; conditions: male KK-Ay mice, high fat diet, 2 weeks; for inhibition in vivo at 30 mg/kg: Mus musculus, 336 h, 30 mg/kg/day oral
Protocol: To 8 weeks-old male KK-Ay mice were provided high fat diet (Oriental Yeast Co., Ltd, 60 cal % fat), and Test compound suspended in 0.2% carboxymethylcellulose solution was orally administered once a day. Oral administration was continued for 2 weeks, and a weight gain-inhibiting rate of the Test compound was calculated by using a weight gain amount of the solvent control group during the test period as 100%. After final administration, the mice were fasted overnight, and blood was collected from tail vein. Measurement of a blood-sugar level was carried out by using glucose Cα Test Wako (Wako Pure Chemical Industries, Ltd.), and measurement of insulin in blood plasma was carried out by using a mouse insulin measurement kit (Morinaga Institute of Biological Science, Inc.).

[1] = read-out: Hypoglycemic action (30 mg/kg/day)
[2] = read-out: Insulin in blood plasma-lowering action (30 mg/kg/day)
[3] = read-out: Weight gain-inhibiting action (30 mg/kg/day)
[4] = administration dose of 10 mg/kg/day oral

SMILES	inhibition in vivo at 5 mg/kg (ICR mice) [%]	inhibition in vivo at 5 mg/kg (C57BL/6J mice) [%]	inhibition in vivo at 30 mg/kg (KK-Ay mice; [1]) [%]	inhibition in vivo at 30 mg/kg (KK-Ay mice; [2]) [%]	inhibition in vivo at 30 mg/kg (KK-Ay mice; [3]) [%]	Hypoglycemic action (KK-Ay mice; [4]) [%^#]	Insulin in blood plasma-lowering action (KK-Ay mice; [4]) [%^#]	Weight gain-inhibiting action (KK-Ay mice; [4]) [%^#]
CC(C)(COc1ccc(-c2ccc(-c3ncc(C(F)(F)F)[nH]3)cc2)cn1)C(=O)O [Example 3-3), 2,2-dimethyl-3-[(5-{4-[5-(trifluoromethyl)-1H-imidazol-2-yl]phenyl}pyridin-2-yl)oxy]propanoic acid]	78	76	41	51	52	–	–	–
CC(C)(COc1ccc(-c2ccc(-c3ncc(C(F)(F)F)[nH]3)cn2)cc1F)C(=O)O [Example 4-2), 3-(2-fluoro-4-{5-[5-(trifluoromethyl)-1H-imidazol-2-yl]pyridin-2-yl}phenoxy)-2,2-dimethylpropanoic acid]	60	82	50	52	49	–	–	–
Cc1cc(-c2ccc(OCC(C)(C)C(=O)O)cc2)ncc1-c1ncc(C(F)(F)F)[nH]1 [Example 5-3), 2,2-dimethyl-3-(4-{4-methyl-5-[5-(trifluoromethyl)-1H-imidazol-2-yl]pyridin-2-yl}-phenoxy)propanoic acid]	71	37	55	56	48	–	–	–
CC(C)(COc1ccc(-c2ccc(-c3ncc(C4(C(F)(F)F)CC4)[nH]3)cn2)cc1)C(=O)O [Example 6-3), sodium 2,2-dimethyl-3-[4-(5-{5-[1-(trifluoromethyl)cyclopropyl]-1H-imidazol-2-yl]pyridin-2-yl}phenoxy)propanoate]	78	71	63	72	–	–	–	–
CC(C)(COc1ccc(-c2cnc(-c3ncc(C(F)(F)F)[nH]3)cn2)cc1)C(=O)O [Example 7-7), 2,2-dimethyl-3-(4-{5-[5-(trifluoromethyl)-1H-imidazol-2-yl]pyrazin-2-yl}phenoxy)-propanoic acid]	71	75	62	58	66	–	–	–
O=C(O)C1(COc2ccc(-c3ccc(-c4ncc(C(F)(F)F)[nH]4)cn3)cc2)CCC1 [Example 14]	69	66	23	27	17	–	–	–
CCC(CC)(COc1ccc(-c2ccc(-c3ncc(C(F)(F)F)[nH]3)cn2)cn1)C(=O)O [Example 22]	76	69	40	47	30	–	–	–
CCC(CC)(COc1ccc(-c2ccc(-c3ncc(C(F)(F)F)[nH]3)nc2)cn1)C(=O)O [Example 23]	85	63	-13	14	39	–	–	–
CC(C)Cc1cnc(-c2ccc(-c3ccc(OCC(C)(C)C(=O)O)cc3)nc2)[nH]1 [Example 26]	67	79	40	27	44	–	–	–
CC(C)(COc1ccc(-c2ccc(-c3ncc(C4CC(F)(F)C4)[nH]3)cn2)cc1)C(=O)O [Example 33]	54	44	42	41	39	–	–	–
Cc1cc(OCC(C)(C)C(=O)O)ncc1-c1ccc(-c2ncc(C3(C(F)(F)F)CC3)[nH]2)nc1 [Example 36]	69	63	23	19	59	–	–	–
Cc1cc(OCC(C)(C)C(=O)O)ncc1-c1ccc(-c2ncc(C3(C(F)(F)F)CC3)[nH]2)cc1 [Example 39]	54	76	44	50	38	–	–	–
CC(C)(COc1ccc(-c2ccc(-c3ncc(C4(C(F)(F)F)CC4)[nH]3)c(F)c2)cn1)C(=O)O [Example 45]	71	72	59	56	42	–	–	–
Cc1cc(OCC(C)(C)C(=O)O)ncc1-c1ccc(-c2ncc(C3(C(F)(F)F)CC3)[nH]2)c(F)c1 [Example 54-4), 3-{[5-(3-fluoro-4-{5-[1-(trifluoromethyl)cyclopropyl]-1H-imidazol-2-yl]phenyl)-4-methylpyridin-2-yl}oxy}-2,2-dimethylpropanoic acid]	74	46	74	93	113	–	–	–
Cc1cc(OCC(C)(C)C(=O)O)ncc1-c1ccc(-c2ncc(C(F)(F)F)[nH]2)nc1 [Example 61-3), 2,2-dimethyl-3-({4-methyl-6′-[5-(trifluoromethyl)-1H-imidazol-2-yl]-3,3′-bipyridin-6-yl}oxy)propanoic acid]	68	80	60	77	90	–	–	–
Cc1cc(OCC(C)(C)C(=O)O)ncc1-c1ccc(-c2ncc(C(F)(F)F)[nH]2)c(F)c1 [Example 62-3), 3-[(5-{3-fluoro-4-[5-(trifluoromethyl)-1H-imidazol-2-yl]phenyl}-4-methylpyridin-2-yl)oxy]-2,2-dimethylpropanoic acid]	85	63	80	95	161	–	–	–
Cc1cc(OCC(C)(C)C(=O)O)ncc1-c1ccc(-c2ncc(C(F)(F)F)[nH]2)c(Cl)c1 [Example 63-3), 3-[(5-{3-chloro-4-[5-(trifluoromethyl)-1H-imidazol-2-yl]phenyl}-4-methylpyridin-2-yl)oxy]-2,2-dimethylpropanoic acid]	60	83	77	90	115	–	–	–
CC(C)(COc1ccc(-c2ccc(-c3ncc(C(F)(F)F)[nH]3)nc2)cn1)C(=O)O [Example 66]	83	76	10	38	46	–	–	–
CC(C)(COc1ccc(-c2ccc(-c3ncc(C(F)(F)C(F)(F)F)[nH]3)cn2)cc1)C(=O)O [Example 69]	85	87	–	–	–	61	37	43
CC(C)(COc1ccc(-c2cnc(-c3ncc(C(F)(F)F)[nH]3)c(F)c2)cn1)C(=O)O [Example 141]	82	55	–	–	–	–	–	–
CC(C)(COc1ncc(-c2ccc(-c3ncc(C(C)(C)C(F)(F)F)[nH]3)cc2)cc1F)C(=O)O [Example 143]	55	4	–	–	–	–	–	–
